From US8685987B2, “Substituted [1,2,4]triazolo[1,5-a]pyrimidines and their use as potassium channel modulators” (Ataxion, Inc., priority 2009, dated 2014) come the findings set out here.

The test deals with T1, hSK1 channels (Homo sapiens, UniProt Q92952).
T1 construct: expressed in transfected cells; host or cells: HEK293
The test can be described thus: Whole-cell patch-clamp recording of SK current in HEK293 cells expressing hSK1 channels. The class given is cell-based. The conditions noted are these: SK1 activation. The source says:
The compounds of the invention may be tested for their ability to modulate SK channels in vitro. Functional modulation can be determined by measuring the compound-induced change in SK current by the patch clamp technique as described in Strøbk et al.: “Pharmacological characterization of small-conductance Ca^2+-activated K channels expressed in HEK293 cells”, British Journal of Pharmacology (2000) 129, 991-999. From this type of measurements the potency of a given compound can be determined as e.g. Ki or IC50 values for blockers/inhibitors and EC50 values for openers/activators. Similar data can be obtained from other patch clamp configurations and from channels expressed endogenously in various cell lines.
The ionic current through small-conductance Ca^2+-activated K^+ channels (SK channels, subtype 1) is recorded using the whole-cell configuration of the patch-clamp technique in a classic patch-clamp set-up using HEK293 tissue culture cells expressing hSK1 channels as described in e.g. WO 2006/100212.
The SC100 value determined is defined as the Stimulating Concentration required for increasing the baseline current by 100%. The below SC100 values are an indication of the SK1 activating properties of the compounds of the invention.
(Patch clamp records ionic current or voltage across a cell membrane.)

For `CON=CNc1nc2nccc(C(C)Oc3ccc(Br)cc3)n2n1` (stereo not drawn) [Example 1, N-{7-[1-(4-Bromophenoxy)ethyl]-[1,2,4]triazolo[1,5-a]pyrimidin-2-yl}-N′-methoxy-formamidine], the “The SC100 (Stimulating Concentration required for increasing the baseline current by 100%)” value worked out at 0.015 µM. With `CON=CNc1nc2nccc(C(C)Oc3ccc(Cl)cc3Cl)n2n1` (stereo not drawn) [Example 2, N-{7-[1-(2,4-Dichlorophenoxy)ethyl]-[1,2,4]triazolo[1,5-a]pyrimidin-2-yl}-N′-methoxy-formamidine], the “The SC100 (Stimulating Concentration required for increasing the baseline current by 100%)” value turned out to be 0.005 µM.

For `CON=CNc1nc2nccc(C(C)Oc3ccc(Cl)cc3)n2n1` (stereo not drawn) [Example 3, N-{7-[1-(4-Chlorophenoxy)ethyl]-[1,2,4]triazolo[1,5-a]pyrimidin-2-yl}-N′-methoxy-formamidine], the “The SC100 (Stimulating Concentration required for increasing the baseline current by 100%)” value came to 0.04 µM.

`CCCON=CNc1nc2nccc(C(C)Oc3ccc(Cl)cc3C)n2n1` (stereo not drawn) [Example 5, N-{7-[1-(4-Chloro-2-methylphenoxy)ethyl]-[1,2,4]triazolo[1,5-a]pyrimidin-2-yl}-N′-propyloxy-formamidine]: the “The SC100 (Stimulating Concentration required for increasing the baseline current by 100%)” value turned out to be 0.003 µM. As for `Cc1cc(Cl)ccc1OC(C)c1ccnc2nc(NC=NOC(C)C)nn12` (stereo not drawn) [Example 6, N-{7-[1-(4-Chloro-2-methylphenoxy)ethyl]-[1,2,4]triazolo[1,5-a]pyrimidin-2-yl}-N′-isopropyloxy-formamidine], the figure is 0.40 µM; as for `CON=CNc1nc2nccc(C(C)(C)Oc3ccc(Cl)cc3C)n2n1` [Example 7, N-{7-[1-(4-Chloro-2-methylphenoxy)-1-methyl-ethyl]-[1,2,4]triazolo[1,5-a]pyrimidin-2-yl}-N′-methoxy-formamidine], 0.60 µM. As for `CON=CNc1nc2nccc(C(C)Oc3ccc(Cl)cc3C)n2n1` (stereo not drawn) [Example A, N-{7-[1-(4-Chloro-2-methylphenoxy)ethyl]-[1,2,4]triazolo[1,5-a]pyrimidin-2-yl}-N′-methoxy-formamidine], the figure is 0.008 µM; as for `CON=CNc1nc2nccc(C(C)Oc3ccc(F)cc3)n2n1` (stereo not drawn) [Example B, N-{7-[1-(4-Fluorophenoxy)ethyl]-[1,2,4]triazolo[1,5-a]pyrimidin-2-yl}-N′-methoxy-formamidine], 0.075 µM. To “N-{7-[1-(4-Chloro-2-methylphenoxy)-ethyl]-6-methyl-[1,2,4]triazolo[1,5-a]pyrimidin-2-yl}-N′-hydroxy-formamidine [Example 4]” belongs 0.20 µM.
